Target: human P2X7 (Homo sapiens (Human), UniProt Q99572)
Assay: P2X7 antagonism in human PBMCs (IL-1β release after LPS + Bz-ATP, ELISA)
Type: cell-based
Conditions: human PBMCs; for PBMC 1 μM (% control): test compound 1 μM
[1] = 10 μM test compound, LPS + Bz-ATP

human P2X7, sequence (Q99572 whole entry): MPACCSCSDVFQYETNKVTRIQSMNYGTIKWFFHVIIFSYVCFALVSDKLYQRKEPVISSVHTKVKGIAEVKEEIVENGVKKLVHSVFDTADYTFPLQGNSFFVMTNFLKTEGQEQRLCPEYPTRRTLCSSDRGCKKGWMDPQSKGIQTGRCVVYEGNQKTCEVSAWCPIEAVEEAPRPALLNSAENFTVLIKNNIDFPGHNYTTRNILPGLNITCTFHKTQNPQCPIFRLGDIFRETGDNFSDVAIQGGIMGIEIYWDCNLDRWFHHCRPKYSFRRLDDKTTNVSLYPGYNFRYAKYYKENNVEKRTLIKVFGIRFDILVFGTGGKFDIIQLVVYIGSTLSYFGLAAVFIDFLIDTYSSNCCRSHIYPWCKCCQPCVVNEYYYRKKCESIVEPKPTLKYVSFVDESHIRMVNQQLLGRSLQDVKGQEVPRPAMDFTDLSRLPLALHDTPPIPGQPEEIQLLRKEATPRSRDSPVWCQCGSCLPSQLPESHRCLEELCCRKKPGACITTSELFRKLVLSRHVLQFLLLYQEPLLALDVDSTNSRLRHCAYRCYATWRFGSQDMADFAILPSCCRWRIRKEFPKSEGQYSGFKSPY

SMILES | PBMC 10 μM (% control) (test compound 10 μM) | other results
C[C@@H]1Cc2c(nnn2-c2ccn[nH]2)[C@@H](C)N1C(=O)c1cccc(C(F)(F)F)c1Cl [Example 296, (2-chloro-3-(trifluoromethyl)phenyl)((4R,6R)-4,6-dimethyl-1-(1H-pyrazol-5-yl)-6,7-dihydro-1H-[1,2,3]triazolo[4,5-c]pyridin-5(4H)-yl)methanone] | 3.6 | 
Cc1cc(C)nc(-n2nnc3c2CCN(C(=O)c2cccc(C(F)(F)F)c2Cl)C3C)c1 (stereo not shown) [Example 300, (2-chloro-3-(trifluoromethyl)phenyl)(1-(4,6-dimethylpyridin-2-yl)-4-methyl-6,7-dihydro-1H-[1,2,3]triazolo[4,5-c]pyridin-5(4H)-yl)methanone] | −1.8 | 
Cc1cccc(-n2nnc3c2CCN(C(=O)c2cccc(C(F)(F)F)c2Cl)C3C)n1 (stereo not shown) [Example 302, (2-chloro-3-(trifluoromethyl)phenyl)(4-methyl-1-(6-methylpyridin-2-yl)-6,7-dihydro-1H-[1,2,3]triazolo[4,5-c]pyridin-5(4H)-yl)methanone] | −2.8 | 
CC1c2nn(COCC[Si](C)(C)C)c(-c3ncc(F)cn3)c2CCN1C(=O)c1cccc(C(F)(F)F)c1Cl (stereo not shown) [Example 303, (2-chloro-3-(trifluoromethyl)phenyl)(3-(5-fluoropyrimidin-2-yl)-7-methyl-2-((2-(trimethylsilyl)ethoxy)methyl)-4,5-dihydro-2H-pyrazolo[3,4-c]pyridin-6(7H)-yl)methanone] | −1.6 | 
O=C(c1cccc(C(F)(F)F)c1Cl)N1CCc2c(ncn2-c2ccc(F)cn2)C1 [Example 315, (2-chloro-3-(trifluoromethyl)phenyl)(1-(5-fluoropyridin-2-yl)-6,7-dihydro-1H-imidazo[4,5-c]pyridin-5(4H)-yl)methanone] | 8.8 | 
Cn1nc2c(c1-c1ccc(F)cc1)CCN(C(=O)c1cccc(Cl)c1Cl)C2 [Example 326, (2,3-dichlorophenyl)(3-(4-fluorophenyl)-2-methyl-4,5-dihydro-2H-pyrazolo[3,4-c]pyridin-6(7H)-yl)methanone] |  | PBMC 1 μM (% control): 92.0 % control
Cn1nc2c(c1-c1ccncc1)CCN(C(=O)c1cccc(Cl)c1Cl)C2 [Example 328, (2,3-dichlorophenyl)(2-methyl-3-(pyridin-4-yl)-4,5-dihydro-2H-pyrazolo[3,4-c]pyridin-6(7H)-yl)methanone] |  | PBMC 1 μM (% control): 88.0 % control
Cc1nc2c(n1-c1ccccc1)CCN(C(=O)c1cccc(Cl)c1Cl)C2 [Example 331, (2,3-dichlorophenyl)(2-methyl-1-phenyl-6,7-dihydro-1H-imidazo[4,5-c]pyridin-5(4H)-yl)methanone] | −11.0 | 
CCc1nc2c(n1-c1ccccc1)CCN(C(=O)c1cccc(Cl)c1Cl)C2 [Example 332, (2,3-dichlorophenyl)(2-ethyl-1-phenyl-6,7-dihydro-1H-imidazo[4,5-c]pyridin-5(4H)-yl)methanone] | −9.5 | 
C[C@H]1c2nnn(-c3cncnc3)c2CCN1C(=O)c1cccc(C(F)(F)F)c1Cl [Example 333, (S)-(2-chloro-3-(trifluoromethyl)phenyl)(4-methyl-1-(pyrimidin-5-yl)-6,7-dihydro-1H-[1,2,3]triazolo[4,5-c]pyridin-5(4H)-yl)methanone] | 6.9 | 
Cc1ccc(-n2nnc3c2CCN(C(=O)c2cccc(Cl)c2Cl)C3C)nc1 (stereo not shown) [Example 336, (2,3-dichlorophenyl)(4-methyl-1-(5-methylpyridin-2-yl)-6,7-dihydro-1H-[1,2,3]triazolo[4,5-c]pyridin-5(4H)-yl)methanone] | −0.5 | 
CCn1ccc(-n2nnc3c2C[C@H](C)N(C(=O)c2cccc(C(F)(F)F)c2Cl)C3)n1 [Example 404, (S)-(2-chloro-3-(trifluoromethyl)phenyl)(1-(1-ethyl-1H-pyrazol-3-yl)-6-methyl-6,7-dihydro-1H-[1,2,3]triazolo[4,5-c]pyridin-5(4H)-yl)methanone] |  | PBMC 10 μM (% control) [1]: −3.1 % control
CCn1nccc1-n1nnc2c1C[C@H](C)N(C(=O)c1cccc(C(F)(F)F)c1Cl)C2 [Example 406, (S)-(2-chloro-3-(trifluoromethyl)phenyl)(1-(1-ethyl-1H-pyrazol-5-yl)-6-methyl-6,7-dihydro-1H-[1,2,3]triazolo[4,5-c]pyridin-5(4H)-yl)methanone] |  | PBMC 10 μM (% control) [1]: −3.6 % control
CCn1nccc1-n1nnc2c1CCN(C(=O)c1cccc(C(F)(F)F)c1Cl)[C@H]2C [Example 407, (S)-(2-chloro-3-(trifluoromethyl)phenyl)(1-(1-ethyl-1H-pyrazol-5-yl)-4-methyl-6,7-dihydro-1H-[1,2,3]triazolo[4,5-c]pyridin-5(4H)-yl)methanone] |  | PBMC 10 μM (% control) [1]: 77.4 % control
CCn1ccc(-n2nnc3c2C[C@H](C)N(C(=O)c2ccnc(C(F)(F)F)c2F)C3)n1 [Example 408, (S)-(1-(1-ethyl-1H-pyrazol-3-yl)-6-methyl-6,7-dihydro-1H-[1,2,3]triazolo[4,5-c]pyridin-5(4H)-yl)(3-fluoro-2-(trifluoromethyl)pyridin-4-yl)methanone] |  | PBMC 10 μM (% control) [1]: 53.6 % control
CCn1ccc(-n2nnc3c2C[C@H](C)N(C(=O)c2ccnc(C(F)(F)F)c2Cl)C3)n1 [Example 410, (S)-(3-chloro-2-(trifluoromethyl)pyridin-4-yl)(1-(1-ethyl-1H-pyrazol-3-yl)-6-methyl-6,7-dihydro-1H-[1,2,3]triazolo[4,5-c]pyridin-5(4H)-yl)methanone] |  | PBMC 10 μM (% control) [1]: −1.5 % control
CCn1ccc(-n2nnc3c2CCN(C(=O)c2ccnc(C(F)(F)F)c2Cl)[C@H]3C)n1 [Example 411, (S)-(3-chloro-2-(trifluoromethyl)pyridin-4-yl)(1-(1-ethyl-1H-pyrazol-3-yl)-4-methyl-6,7-dihydro-1H-[1,2,3]triazolo[4,5-c]pyridin-5(4H)-yl)methanone] |  | PBMC 10 μM (% control) [1]: 69.6 % control
CC(C)n1ccc(-n2nnc3c2CCN(C(=O)c2cccc(C(F)(F)F)c2Cl)[C@H]3C)n1 [Example 413, (S)-(2-chloro-3-(trifluoromethyl)phenyl)(1-(1-isopropyl-1H-pyrazol-3-yl)-4-methyl-6,7-dihydro-1H-[1,2,3]triazolo[4,5-c]pyridin-5(4H)-yl)methanone] |  | PBMC 10 μM (% control) [1]: 68.5 % control

Second part, led by results:

PBMC 10 μM (% control) (test compound 10 μM) | SMILES | other results
2.6 | C[C@@H]1Cc2c(nnn2-c2ccn[nH]2)[C@H](C)N1C(=O)c1cccc(C(F)(F)F)c1Cl [Example 297, (2-chloro-3-(trifluoromethyl)phenyl)((4S,6R)-4,6-dimethyl-1-(1H-pyrazol-5-yl)-6,7-dihydro-1H-[1,2,3]triazolo[4,5-c]pyridin-5(4H)-yl)methanone] | 
1.5 | Cc1ccnc(-n2nnc3c2CCN(C(=O)c2cccc(C(F)(F)F)c2Cl)C3C)c1 (stereo not shown) [Example 299, (2-chloro-3-(trifluoromethyl)phenyl)(4-methyl-1-(4-methylpyridin-2-yl)-6,7-dihydro-1H-[1,2,3]triazolo[4,5-c]pyridin-5(4H)-yl)methanone] | 
−2.2 | Cc1ccc(-n2nnc3c2CCN(C(=O)c2cccc(C(F)(F)F)c2Cl)C3C)nc1 (stereo not shown) [Example 301, (2-chloro-3-(trifluoromethyl)phenyl)(4-methyl-1-(5-methylpyridin-2-yl)-6,7-dihydro-1H-[1,2,3]triazolo[4,5-c]pyridin-5(4H)-yl)methanone] | 
3.2 | C[C@H]1Cc2c(nnn2-c2ncc(F)cn2)CN1C(=O)c1cccc(C(F)(F)F)c1 [Example 304, (S)-(1-(5-fluoropyrimidin-2-yl)-6-methyl-6,7-dihydro-1H-[1,2,3]triazolo[4,5-c]pyridin-5(4H)-yl)(3-(trifluoromethyl)phenyl)methanone] | 
2.2 | C[C@H]1Cc2c(nnn2-c2ncc(F)cn2)CN1C(=O)c1cc(F)cc(C(F)(F)F)c1 [Example 307, (S)-(3-fluoro-5-(trifluoromethyl)phenyl)(1-(5-fluoropyrimidin-2-yl)-6-methyl-6,7-dihydro-1H-[1,2,3]triazolo[4,5-c]pyridin-5(4H)-yl)methanone] | 
1.4 | C[C@@H]1Cc2c(nnn2-c2ccn[nH]2)[C@H](C)N1C(=O)c1cccc(C(F)(F)F)c1Cl [Example 309, (2-chloro-3-(trifluoromethyl)phenyl)((4S,6R)-4,6-dimethyl-1-(1H-pyrazol-5-yl)-6,7-dihydro-1H-[1,2,3]triazolo[4,5-c]pyridin-5(4H)-yl)methanone] | 
−6.8 | C[C@H]1Cc2c(nnn2-c2ccn[nH]2)[C@H](C)N1C(=O)c1cccc(C(F)(F)F)c1Cl [Example 319, (2-chloro-3-(trifluoromethyl)phenyl)((4S,6S)-4,6-dimethyl-1-(1H-pyrazol-5-yl)-6,7-dihydro-1H-[1,2,3]triazolo[4,5-c]pyridin-5(4H)-yl)methanone] | 
−0.7 | Cc1ccnc(-n2nnc3c2CCN(C(=O)c2ccnc(C(F)(F)F)c2Cl)C3C)c1 (stereo not shown) [Example 358, (3-chloro-2-(trifluoromethyl)pyridin-4-yl)(4-methyl-1-(4-methylpyridin-2-yl)-6,7-dihydro-1H-[1,2,3]triazolo[4,5-c]pyridin-5(4H)-yl)methanone] | 
64.7 | Cc1cc(-n2nnc3c2CCN(C(=O)c2ccnc(C(F)(F)F)c2F)C3C)ncn1 (stereo not shown) [Example 397, (3-fluoro-2-(trifluoromethyl)pyridin-4-yl)(4-methyl-1-(6-methylpyrimidin-4-yl)-6,7-dihydro-1H-[1,2,3]triazolo[4,5-c]pyridin-5(4H)-yl)methanone] | 
82.0 | Cc1nccc(-n2nnc3c2CCN(C(=O)c2ccnc(C(F)(F)F)c2F)C3C)n1 (stereo not shown) [Example 401, (3-fluoro-2-(trifluoromethyl)pyridin-4-yl)(4-methyl-1-(2-methylpyrimidin-4-yl)-6,7-dihydro-1H-[1,2,3]triazolo[4,5-c]pyridin-5(4H)-yl)methanone] | 

Reference: patent US10112937B2, “P2X7 modulators and methods of use” (Janssen Pharmaceutica NV, priority 2013, dated 2018)
